Here are results for four compounds from BindingDB's records for doi:10.1021/acs.jmedchem.6b00108 (University of Montreal, 2016).

Molecules are shown by their SMILES. Where a SMILES comes first, the peptide text is derived from it.

Assay [1] in a line: Antagonist activity at UT2 receptor in Sprague-Dawley rat thoracic aorta ring assessed as pEC50 for hU2-induced aortic contractions at 10^-5M relative to KCl.
A short description of assay [2]: Antagonist activity at UT2 receptor in Sprague-Dawley rat thoracic aorta ring assessed as pEC50 for URP -induced aortic contractions at 10^-5M relative to KCl.

For orientation: EC50 means the midpoint of the concentration-response curve. For the compound `CC(C)[C@H](NC(=O)[C@@H]1CSSC[C@H](NC(=O)[C@@H](N)CC(=O)O)C(=O)N[C@@H](Cc2ccccc2)C(=O)NN(Cc2cccc3ccccc23)S(=O)(=O)N[C@@H](CCCCN)C(=O)N[C@@H](Cc2ccc(O)cc2)C(=O)N1)C(=O)O`, the EC50 in assay [1] came out at 5 nM; in assay [2], 7.9 nM.
As to `CC(C)[C@H](NC(=O)[C@@H]1CSSC[C@H](NC(=O)[C@@H](N)CC(=O)O)C(=O)N[C@@H](Cc2ccccc2)C(=O)NN(Cc2ccc3ccccc3c2)S(=O)(=O)N[C@@H](CCCCN)C(=O)N[C@@H](Cc2ccc(O)cc2)C(=O)N1)C(=O)O`, the values for the EC50 in assay [1] and in assay [2] were 15 nM and 9.5 nM, respectively.
Regarding `CC(C)[C@H](NC(=O)[C@@H]1CSSC[C@H](NC(=O)[C@@H](N)CC(=O)O)C(=O)N[C@@H](Cc2ccccc2)C(=O)N[C@@H](Cc2c[nH]c3ccccc23)C(=O)NN(CCCCN(C)C)S(=O)(=O)N[C@@H](Cc2ccc(O)cc2)C(=O)N1)C(=O)O` (HELM PEPTIDE1{D.C.F.W.[CN(C)CCCCN(N[*:1])S(=O)(=O)N[C@@H](Cc1ccc(O)cc1)C(=O)[*:2]].C.V}$PEPTIDE1,PEPTIDE1,2:R3-6:R3$$$V2.0), the results for the EC50 in assay [1] and in assay [2] were 1.6 nM and 3.7 nM, respectively.
For `CC(C)[C@H](NC(=O)[C@@H]1CSSC[C@H](NC(=O)[C@@H](N)CC(=O)O)C(=O)N[C@@H](Cc2ccccc2)C(=O)NN(Cc2ccccc2)S(=O)(=O)N[C@@H](CCCCN)C(=O)N[C@@H](Cc2ccc(O)cc2)C(=O)N1)C(=O)O` (HELM PEPTIDE1{D.C.F.[NCCCC[C@H](NS(=O)(=O)N(Cc1ccccc1)N[*:1])C(=O)[*:2]].Y.C.V}$PEPTIDE1,PEPTIDE1,2:R3-6:R3$$$V2.0), the EC50 in assay [1] turned out to be 4.8 nM; in assay [2] it was 3.5 nM.
